Values after ≈ are worked out from the molar mass of the structure shown. Active and inactive are the calls of the source. No cut-off for these calls is given here.
How the values were obtained:
[1] = Kinetic solubility in HEPES buffer containing 5% DMSO at pH 8 incubated for 20 hrs by NMR analysis; assay type: physicochemical; conditions: read-out: Kinetic_solubility
[2] = Kinetic solubility in PBS buffer containing 1% DMSO at pH 7.4 incubated for 2 hrs by HPLC analysis; assay type: physicochemical; conditions: read-out: Kinetic_solubility
[3] = Metabolic stability in CD-1 mouse liver microsomes assessed as intrinsic clearance at 1 uM measured upt0 30 mins by LC-MS/MS analysis; assay type: ADME, Microsome; conditions: 0.5 h
[4] = tested on: SUD4; test: Antiproliferative activity agianst human SUDHL4 cells assessed as growth inhibition incubated for 14 days by CellTiter Glo reagent based assay; assay type: functional; conditions: SU-DHL-4, […]
[5] = tested on: OCI-Ly1; test: Antiproliferative activity agianst human OCI-LY1 cells assessed as growth inhibition incubated for 14 days by CellTiter Glo reagent based assay
[6] = tested on: OCI-Ly3; test: Antiproliferative activity agianst human OCI-LY3 cells assessed as growth inhibition incubated for 14 days by CellTiter Glo reagent based assay
[7] = Cmax in SCID mouse at 5 mg/kg, po measured upto 24 hrs by LC/MS-MS analysis; assay type: ADME, organism-based; set-up: dose 5 mg/kg, route oral; conditions: in vivo
[8] = AUC (0 to 10 hrs) in SCID mouse at 5 mg/kg, po measured upto 10 hrs by LC/MS-MS analysis; assay type: ADME, organism-based; set-up: time < 10 hr, dose 5 mg/kg, route oral; conditions: in vivo
[9] = Cmax in SCID mouse at 15 mg/kg, po measured upto 24 hrs by LC/MS-MS analysis; assay type: ADME, organism-based; set-up: dose 15 mg/kg, route oral; conditions: in vivo
[10] = AUC (0 to 10 hrs) in SCID mouse at 15 mg/kg, po measured upto 10 hrs by LC/MS-MS analysis; assay type: ADME, organism-based; set-up: dose 15 mg/kg, time < 10 hr, route oral; conditions: in vivo
[11] = Cmax in SCID mouse at 50 mg/kg, po measured upto 24 hrs by LC/MS-MS analysis; assay type: ADME, organism-based; set-up: dose 50 mg/kg, route oral; conditions: in vivo
[12] = AUC (0 to 10) hrs in SCID mouse at 50 mg/kg, po measured upto 10 hrs by LC/MS-MS analysis; assay type: ADME, organism-based; set-up: dose 50 mg/kg, time < 10 hr, route oral; conditions: in vivo
[13] = Protein binding in SCID mouse plasma assessed as unbound fraction; assay type: ADME, cell-free
[14] = Plasma concentration in SCID mouse; assay type: ADME, cell-free
[15] = Drug level in SCID mouse blood; assay type: ADME, tissue-based; conditions: read-out: Ct
[16] = tested on: Mus musculus; test: In vivo inhibition of BCL6 in SCID mouse xenografted with human OCI-LY1 cells assessed as reduction in BCL6 level at 15 mg/kg, po measured upto 10 hrs by Western blot analysis; assay type: functional, organism-based
[17] = Toxicity in SCID mouse xenografted with human OCI-LY1 cells assessed as adverse effect at 15 mg/kg, po observed for 24 hrs; assay type: organism-based; conditions: in vivo
[18] = tested on: Mus musculus; test: In vivo inhibition of BCL6 in SCID mouse xenografted with human OCI-LY1 cells assessed as reduction in BCL6 level at 15 mg/kg, po measured at 12 and 16 hrs by Western blot analysis; assay type: functional, organism-based
[19] = Lipophilicity, log D of compound at pH 7.4; assay type: physicochemical; conditions: buffer
[20] = in vivo; conditions: SCID, mouse, po, 5 mg/kg
[21] = in vivo; conditions: SCID, mouse, po, 15 mg/kg
[22] = in vivo; conditions: SCID, mouse, po, 50 mg/kg

Compound: C[C@@H]1CN(c2ncc(Cl)c(Nc3ccc4c(c3)n(CCC(C)(C)O)c(=O)n4C)n2)C[C@H](C)C1(F)F
- solubility kinetic at 20 h [1]: 11 µM (≈ 5.6 µg/mL)
- solubility kinetic at 2 h [2]: 8 µM (≈ 4.07 µg/mL)
- CLH [3]: 78 µL/min/mg
- GI50 [4]: 92 nM
- GI50 [5]: 35 nM
- GI50 [6]: 1600 nM
- Cmax [7]: 1870 to 2040 nM
- AUC(0-t) at 10 h [8]: 11.6 to 13.1 µM·h
- Cmax [9]: 6680 to 6930 nM
- AUC(0-t) at 10 h [10]: 48.2 to 49.3 µM·h
- Cmax [11]: 5320 to 6210 nM
- AUC at 10 h [12]: 47.4 to 56.3 µM·h
- fraction unbound [13]: 0.0007
- concentration [14]: 1500 nM
- concentration [15]: 2800 nM
- inhibition [16]: Active
- Activity [17]: Non-Toxic
- inhibition [18]: inactive
- logD [19]: 4.3
- Tmax at 24 h [20]: 0.5 to 1 h
- Tmax at 24 h [21]: 0.5 to 2 h
- Tmax at 24 h [22]: 2 to 6 h
